Source: article PMC12655060, “Modified Hevein-like Peptide from Amaranthus caudatus as a Promising Agent Against Pathogenic Candida Species” (Pharmaceutics, 2025)
In brackets after ≈: the same amount, converted by molar mass. Several values for one entry are separate records, joined by “and”; a condition that tells them apart may be missing. Equal values may be shown once. Read-outs that look alike come from different tables or passages of the source. Positions of bridges follow the written chain, without caps; N, C: chain ends. No end group written: not given here.

Experiments:
[1] = test system: C. albicans 8.2; assay: Antifungal microdilution assay; format: cell-based; details: Candida albicans, Sabouraud broth
Experimental: (§1) Briefly, fungal cells at a concentration of 4 × 10^4 cells/mL in the Sabouraud broth were mixed with equal volumes of serial dilutions of the peptide in water (final volume 100 μL and pH 6.0) and incubated at 30 °C for 24 h. Inhibition of fungal growth was assessed relative to the peptide-free control, based on absorbance at 630 nm and microscopic analysis. MIC50 and MIC were defined as minimal concentrations of the peptide, causing 50 and 100% inhibition of fungal growth. […] The effects of heating and reduction in disulfide bonds on the activity of the peptide towards C. albicans ATCC 18804 was also tested. […] Tobacco defensin NaD1, whose structure is also stabilized by disulfide bonds, was used for comparison in these experiments. The effect of reduced L-glutathione (AppliChem, Darmstadt, Germany), a component of RPMI-1640 medium, at a final concentration of 3.25 μM, was also studied.
(§2) Each experiment was conducted twice in triplicate. The microplate wells were pre-treated with 0.1% BSA to minimize adsorption of antifungal agents.

[2] = test system: C. albicans ATCC 18804; format: cell-based, Candida albicans
Experimental: (§3) Serial dilutions of the mixture of two combinable substances were added to the equal volumes of fungal cell suspensions in this case. […] Caspofungin or ebselen in 1% DMSO as well as voriconazole in 1% methanol were tested in these experiments.

[3] = test system: C. albicans ATCC 18804; assay: Resistance induction experiments (serial passage); format: cell-based, Candida albicans; details: passaging at 0.25 × MIC for 24 days; mAc-AMP2 8th and 24th, caspofungin 21, LL-37 24th passage
Experimental: For comparison, the echinocandin caspofungin, human cathelicidin LL-37, and tobacco defensin NaD1 were used in these experiments. C. albicans ATCC 18804 or ATCC 10231 at a concentration of 4 × 10^4 cells/mL were added to serial dilutions of antifungal agents. The 96-well microplates were incubated overnight at 30 °C and MIC values were determined as described above. […] Sequential passaging followed by MIC determination continued for 24 days. […] After that whole cultures as well as single colonies were used for MICs determination to confirm the stability of acquired resistance to the peptide.

[4] = test system: C. albicans ATCC 18804; set-up: method as in PMID 39770352, PMID 39337545; details: 2 h, same conditions; cited from earlier work
[5] = test system: C. albicans 8.2; assay: Prevention of adhesion to the plastic surface; format: cell-based, Candida albicans; details: for Cell adhesion, % / Inhibition of adhesion, %: plastic surface
Experimental: The plates were incubated for 1.5 h at 37 °C; after that, plate wells were washed twice with PBS to remove unattached C. albicans cells. Adherent cells were detached by microplate incubation for 45 min with trypsin/EDTA solution. Enzymatic activity was stopped by an addition of 10% FBS. After that the well contents were scraped, diluted 100-fold with PBS, and plated on Sabouraud agar with glucose and chloramphenicol. In this case, adhesion was calculated as ((N × 100)/5 × 10^5) × 100%, and adhesion inhibition was calculated as described above. These experiments were carried out twice in triplicate.

[6] = test system: C. albicans 9.1; format: cell-based, Candida albicans; details: for [A]/MICA: ratio for mAc-AMP2 in the combination; for [B]/MICB: ratio for the named agent in the combination
Experimental: as §3

[7] = test system: C. albicans 8.2; format: cell-based, Candida albicans; details: for [A]/MICA: ratio for mAc-AMP2 in the combination; for [B]/MICB: ratio for the named agent in the combination
Experimental: as §3

[8] = test system: C. albicans ATCC 18804; details: for MIC, RPMI-1640 / MIC, ½Sabouraud broth: Table S4; for antifungal activity in RPMI-1640: at a concentration of 50 μM
Experimental: as §1, §2

[9] = test system: C. albicans ATCC 18804; assay: Calcofluor White binding assay (cell wall chitin content); format: cell-based, Candida albicans; details: at MIC
Experimental: Polyene antimycotic amphotericin B (AmB) was also used in these experiments. […] Cell cultures were harvested, washed twice with PBS, and stained with 20 μg/mL CFW in PBS for 30 min. After that stained cells were washed three times with PBS and the cell density of each group was adjusted to 10^6 cells/mL using Cell Counter LUNA-II (Logos Biosystems, Anyang-si, Republic of Korea) and trypan blue. Unstained or stained untreated by antifungal agent cells were used as negative and positive controls, respectively. Fluorescence intensities were measured at 20 °C using a Hitachi F-2710 spectrofluorometer (Hitachi High Technologies America Inc., Pleasanton, CA, USA) with excitation and emission wavelengths of 350 nm (10 nm width) and 435 nm, respectively. Results were expressed as % of fluorescence intensity in comparison to positive control. This study was performed twice in triplicate.

[10] = test system: C. albicans 8.2; details: 12.5 μM (2 × MIC) and 25 μM (4 × MIC), same conditions; cited from earlier work
[11] = test system: C. albicans 9.1; details: 12.5 μM (2 × MIC) and 25 μM (4 × MIC), same conditions; cited from earlier work
[12] = test system: Caco-2 cells in a monolayer; assay: Cytotoxicity assay (resazurin); format: cell-based, human; details: 12.5 µM, 24 h
Experimental: Then 10 µL of resazurin at a concentration of 0.7 mM was added and the incubation was continued for 4 h. Untreated cells and cells in the presence of 0.1% Triton X-100 were used as negative and positive controls, respectively. The cell viability was estimated by resorufin fluorescence registered at 595 nm as (Fsample/Fcontrol) × 100%. Wells containing no cells were used to subtract background fluorescence. This experiment was carried out twice in duplicate.

[13] = combination of the named agent with mAc-AMP2
[14] = ratio of mAc-AMP2 concentration in the combination with the named agent to its MIC
[15] = ratio of the named agent's concentration in combination with mAc-AMP2 to its MIC

## CC[C@H](C)C[C@H](C)CCCCCCCCC(=O)N[C@H]1C[C@@H](O)[C@@H](NCCN)NC(=O)[C@@H]2[C@@H](O)CCN2C(=O)[C@H]([C@H](O)CCN)NC(=O)[C@H]([C@H](O)[C@@H](O)c2ccc(O)cc2)NC(=O)[C@@H]2C[C@@H](O)CN2C(=O)[C@H]([C@@H](C)O)NC1=O [Caspofungin]
[1]
  MIC: 0.04 µg/mL (≈ 0.0366 µM)
[2]; [13]
  FICI: 2
[2]; [14]
  [A]/MICA: 1
[2]; [15]
  [B]/MICB: 1
[3]
  MIC increase during serial passage: eight-fold
[4]
  effect on PI uptake: no effects
[5]; Candida albicans, 8.2, read-out: Inhibition of adhesion
  inhibition at 5.12 µg/mL: ~40%

## O=c1c2ccccc2[se]n1-c1ccccc1 [Ebselen]
[6]; combination of the named agent with mAc-AMP2, strain 9.1
  FICI: 1
[6]; strain 9.1
  [A]/MICA: 0.5
  [B]/MICB: 0.5
[2]; [13]
  FICI: 1
[2]; [14]
  [A]/MICA: 0.5
[2]; [15]
  [B]/MICB: 0.5
[7]; combination of the named agent with mAc-AMP2, strain 8.2
  FICI: 0.75
[7]; strain 8.2
  [A]/MICA: 0.5
  [B]/MICB: 0.25

## CC[C@H](C)[C@H](NC(=O)[C@H](CCCCN)NC(=O)[C@H](CCC(=O)O)NC(=O)[C@H](CCCCN)NC(=O)[C@H](CO)NC(=O)[C@H](CCCCN)NC(=O)[C@H](CCCNC(=N)N)NC(=O)[C@H](Cc1ccccc1)NC(=O)[C@H](Cc1ccccc1)NC(=O)[C@H](CC(=O)O)NC(=O)CNC(=O)[C@H](CC(C)C)NC(=O)[C@@H](N)CC(C)C)C(=O)NCC(=O)N[C@@H](CCCCN)C(=O)N[C@@H](CCC(=O)O)C(=O)N[C@@H](Cc1ccccc1)C(=O)N[C@@H](CCCCN)C(=O)N[C@@H](CCCNC(=N)N)C(=O)N[C@H](C(=O)N[C@H](C(=O)N[C@@H](CCC(N)=O)C(=O)N[C@@H](CCCNC(=N)N)C(=O)N[C@H](C(=O)N[C@@H](CCCCN)C(=O)N[C@@H](CC(=O)O)C(=O)N[C@@H](Cc1ccccc1)C(=O)N[C@@H](CC(C)C)C(=O)N[C@@H](CCCNC(=N)N)C(=O)N[C@@H](CC(N)=O)C(=O)N[C@@H](CC(C)C)C(=O)N[C@H](C(=O)N1CCC[C@H]1C(=O)N[C@@H](CCCNC(=N)N)C(=O)N[C@H](C(=O)N[C@@H](CCC(=O)O)C(=O)N[C@@H](CO)C(=O)O)[C@@H](C)O)C(C)C)[C@@H](C)CC)C(C)C)[C@@H](C)CC [LL-37]
[8]
  MIC, RPMI-1640: > 50 µM
  antifungal activity in RPMI-1640: did not exhibit antifungal activity
[8]; ½Sabouraud broth
  MIC, ½Sabouraud broth: 12.5 µM (≈ 56.2 µg/mL)
[8]; microdilution, ½Sabouraud broth, pH 6.0, no salts, no FBS, 30 °C, 24 h, 100% growth inhibition, twice in triplicate
  MIC: 12.5 µM
[2]; [14]
  [A]/MICA: 0.5
[2]; [15]
  [B]/MICB: 0.5
[3]
  MIC increase during serial passage: two-fold

## C[C@@H](c1ncncc1F)[C@](O)(Cn1cncn1)c1ccc(F)cc1F [Voriconazole]
[2]; combination with mAc-AMP2, for voriconazole MIC50 values were used
  FICI: 2
[2]; ratio for mAc-AMP2 in the combination, for voriconazole MIC50 values were used
  [A]/MICA: 1
[2]; ratio for voriconazole in the combination, MIC50 values were used
  [B]/MICB: 1

## C[C@@H]1[C@H](O)[C@@H](C)/C=C/C=C/C=C/C=C/C=C/C=C/C=C/[C@H](O[C@@H]2O[C@H](C)[C@@H](O)[C@H](N)[C@@H]2O)C[C@@H]2O[C@](O)(C[C@@H](O)C[C@@H](O)[C@H](O)CC[C@@H](O)C[C@@H](O)CC(=O)O[C@H]1C)C[C@H](O)[C@H]2C(=O)O [amphotericin B]
[9]
  fluorescence intensity of Calcofluor White-stained cells: reduced
[4]
  effect on PI uptake: no effects

## GIGDPVTCLKSGAICHPVFCPRRYKQIGTCGLPGTKCCKKP (disulfide 8-37, 15-30, 20-38 (inferred)) [HBD2]
[8]
  MIC, RPMI-1640: > 50 µM
  antifungal activity in RPMI-1640: did not exhibit antifungal activity
[8]; ½Sabouraud broth
  MIC, ½Sabouraud broth: 6.25 µM
[2]; [14]
  [A]/MICA: 0.5
[2]; [15]
  [B]/MICB: 0.5

## RECKTESNTFPGICITKPPCRKACISEKFTDGHCSKILRRCLCTKPC (disulfide 3-47, 14-34, 20-41, 24-43 (inferred)) [NaD1]
[8]; ATCC 18804, 24 h
  MFC: 25 µM
  MIC: 6.25 µM
[8]; ATCC 18804, 24 h, pH 6
  MFC: 12.5 µM
  MIC: 6.25 µM
[6]; 9.1
  FICI: 1
[6]; strain 9.1
  [A]/MICA: 0.5
  [B]/MICB: 0.5
[2]
  FICI: 0.75
[2]; [14]
  [A]/MICA: 0.5
[2]; [15]
  [B]/MICB: 0.25
[7]; 8.2
  FICI: 1
[7]; strain 8.2
  [A]/MICA: 0.5
  [B]/MICB: 0.5
[3]
  MIC increase during serial passage: no change in the sensitivity
[10]
  effect on adhesion to the Caco-2 cell monolayer: effectively inhibited the adhesion
[5]; 3.13 μM
  Cell adhesion, %: 5.29%
[5]; 6.25 μM
  Cell adhesion, %: 0.96%
  Inhibition of adhesion, %: 81.32%
[5]; 12.5 μM, Sabouraud broth, 1.5 h, 37 °C
  Cell adhesion, %: 0.15%
[5]; 12.5 μM
  Inhibition of adhesion, %: 97.12% and ~100%
[5]; 25 μM, Sabouraud broth, 1.5 h, 37 °C
  Cell adhesion, %: 0.05%
[5]; 25 μM
  Inhibition of adhesion, %: 99.03%
[11]
  effect on adhesion to the Caco-2 cell monolayer: effectively inhibited the adhesion

## melittin
[12]
  cell death: about 100%
